In patent US8481489B2, “GH secretagogues and uses thereof” (Theratechnologies Inc., priority 2003, dated 2013):

Experiment: In vitro half-life
Assay type: in vitro ADME
Excerpt: The safety profile of TH9507 is generally good.

Question: For `CC[C@H](C)[C@H](NC(=O)[C@H](C)NC(=O)[C@H](CC(=O)O)NC(=O)[C@H](C)NC(=O)[C@@H](N)Cc1ccc(O)cc1)C(=O)N[C@@H](Cc1ccccc1)C(=O)N[C@H](C(=O)N[C@@H](CC(N)=O)C(=O)N[C@@H](CO)C(=O)N[C@@H](Cc1ccc(O)cc1)C(=O)N[C@@H](CCCNC(=N)N)C(=O)N[C@@H](CCCCN)C(=O)N[C@H](C(=O)N[C@@H](CC(C)C)C(=O)NCC(=O)N[C@@H](CCC(N)=O)C(=O)N[C@@H](CC(C)C)C(=O)N[C@@H](CO)C(=O)N[C@@H](C)C(=O)N[C@@H](CCCNC(=N)N)C(=O)N[C@@H](CCCCN)C(=O)N[C@@H](CC(C)C)C(=O)N[C@@H](CC(C)C)C(=O)N[C@@H](CCC(N)=O)C(=O)N[C@@H](CC(=O)O)C(=O)N[C@H](C(=O)N[C@@H](CCSC)C(=O)N[C@@H](CO)C(=O)N[C@@H](CCCNC(=N)N)C(=O)N[C@@H](CCC(N)=O)C(=O)N[C@@H](CCC(N)=O)C(=O)NCC(=O)N[C@@H](CCC(=O)O)C(=O)N[C@@H](CO)C(=O)N[C@@H](CC(N)=O)C(=O)N[C@@H](CCC(N)=O)C(=O)N[C@@H](CCC(=O)O)C(=O)N[C@@H](CCCNC(=N)N)C(=O)NCC(=O)N[C@@H](C)C(=O)N[C@@H](CCCNC(=N)N)C(=O)N[C@@H](C)C(=O)N[C@@H](CCCNC(=N)N)C(=O)N[C@@H](CC(C)C)C(N)=O)[C@@H](C)CC)C(C)C)[C@@H](C)O` [hGRF, hGRF(1-44)NH2, reference compound], which half-life is on record?
Answer: 33.6 min
